For one compound, IC50 results are on record in patent US12459940B2, “Oxazole compound as multi-targeted inhibitor of IRAK4 and BTK” (SHANGHAI FOSUN PHARMACEUTICAL INDUSTRIAL DEVELOPMENT CO., …, priority 2019, dated 2025).

One experiment deals with OCI-LY3 cell line. Nature of the experiment: OCI-LY3 cell proliferation inhibition (CTG). The conditions noted are these: Homo sapiens, incubated for 72 hours. The experiment is classed as cell-based. Here is the method:
The tumor cell line used in this experiment was provided by Nanjing Cobioer Biotechnology Co., Ltd. See Table 13 below for specific information.
The tumor cell lines OCI-LY3 were used to detect the effect of the compound on inhibiting tumor cell proliferation in vitro. The OCI-LY3 cell line was cultured in the corresponding medium at 37° C. and 5% CO2, and the logarithmic growth phase cells were used in the experimental plating. The cells were collected and centrifuged at 800 rpm for 5 minutes, and the culture medium was re-suspended and spread in a 96-well plate. After incubating overnight in a 37° C., 5% CO2 incubator, the cells with different concentration gradients (10 μL of prepared diluent of the tested compound) were incubated for 72 hours, and the cell culture plates were incubated with CTG reagent at room temperature and away from light for 30 minutes, and then recovered to room temperature. 100 μL/hole of CTG solution was added into the biosafety cabinet away from light, and the plate shaker was shaken and mixed evenly away from light for 2 minutes, and incubated at room temperature away from light for 10 minutes. The luminescence values were read and recorded using the Perkin Elmer Envision 2104 MuLtilabel Reader.
The results of luminescence values measured at each drug concentration were normalized with the luminescence values of the blank control group, and the ratio of this value to the DMSO group was taken as the cell inhibition rate (%). Using GraphPad software, the logarithm of drug concentration (log drug concentration) versus inhibition rate was plotted, and the software automatically fitted and calculated IC50 value and 95% confidence limit value by log (inhibitor) vs. normalized response algorithm of nonlinear regression.

A further experiment has as its target T1, human IRAK4 (Homo sapiens, UniProt Q9NWZ3).
T1 construct: purchased Reaction Biology Corp
T1 sequence (Q9NWZ3 1-460): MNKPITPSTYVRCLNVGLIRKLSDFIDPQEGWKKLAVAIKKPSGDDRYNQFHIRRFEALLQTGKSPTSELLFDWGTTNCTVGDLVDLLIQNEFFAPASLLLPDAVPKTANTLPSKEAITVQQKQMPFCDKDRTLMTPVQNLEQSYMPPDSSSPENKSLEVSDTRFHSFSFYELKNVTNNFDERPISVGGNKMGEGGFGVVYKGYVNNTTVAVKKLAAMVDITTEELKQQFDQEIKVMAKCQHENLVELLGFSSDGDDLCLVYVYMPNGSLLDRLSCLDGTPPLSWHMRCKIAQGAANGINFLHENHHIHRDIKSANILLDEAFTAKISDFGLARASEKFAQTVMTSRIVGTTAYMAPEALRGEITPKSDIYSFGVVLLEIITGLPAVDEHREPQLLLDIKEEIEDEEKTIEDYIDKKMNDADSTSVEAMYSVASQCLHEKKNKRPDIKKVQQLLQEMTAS
Put plainly: In vitro IRAK4 kinase activity, 33P isotope-labeled kinase activity assay (Reaction Biology Corp). The experiment is classed as biochemical. The settings on record: 33P-ATP, 120 minutes at room temperature; read-out: IRAK4/IC50.

Experiment [1] concerns TMD8 human B-cell lymphoma cells. Put plainly: TMD-8 cell proliferation inhibition (CellTiter-Glo). The experiment is classed as cell-based. The conditions noted are these: TMD8, 72 h, treated for 3 days. Here is the method: TMD8 human B-cell lymphoma cells were cultured in a 37° C., 5% CO2 incubator. The composition of medium was RPMI1640 (GIBCO, Cat #22400-089); the supplementary compositions were 10% FBS (Hyclone, Cat #SH30084.03); 1% PenStrep (Thermo, Cat #SV30010).
The tumor cell lines OCI-LY10 and TMD8 were used to detect the effect of the compound on inhibiting tumor cell proliferation in vitro. The tumor cell line was cultured in a 37° C., 5% CO2 incubator according to the culture conditions shown, and passaged regularly, then the cells in the logarithmic growth phase were taken, counted, and spread in a 96-well plate (the cells in each well were adjusted to an appropriate concentration, a total of […] per well was added). After incubating overnight in a 37° C., 5% CO2 incubator, drugs with different concentration gradients (10 μL of drug solution was added) were added and treated for 3 days, then 50 μL of CellTiter-Glo working solution was added to each well, and the cell plate was wrapped with aluminum foil to avoid light. The culture plate was shaken on an orbital shaker for 2 minutes to induce cell lysis, and placed at room temperature for 10 minutes to stabilize the luminescence signal, then the luminescence signal was detected on the 2104 EnVision plate reader.
The Inhibition rate (IR) of the tested compound was calculated using the following formula: IR (%)=(1−(RLU compound−RLU blank control)/(RLU solvent control−RLU blank control))*100%.
The inhibition rates of different concentrations of the compounds were calculated in Excel, and then the inhibition curves were made by GraphPad Prism software and the related parameters were calculated, including the minimum inhibition rate, the maximum inhibition rate and IC50.
A general note: In ATP-based viability assays light output follows the ATP content of the culture.

In the case of `Cc1cc(-c2nc(C(=O)Nc3cn4cc(CCC(C)(C)O)nc4cc3N3CCCCC3)co2)ccn1` [WX001], the IC50 in the experiment on OCI-LY3 cell line worked out at 1290 nM; on human IRAK4, 1 nM; in experiment [1], 300 nM.
